The structures appear in SMILES notation.

The first test deals with T1, recombinant human ACC2 (Homo sapiens, UniProt O00763).
T1 construct: a cDNA encoding human ACC2 (27-2458) was cloned from human kidney cDNA library (Clontech); His-tag (N); made in house; host or cells: Sf-9 insect cells (Bac-to-Bac baculovirus)
T1 sequence (O00763 27-2458): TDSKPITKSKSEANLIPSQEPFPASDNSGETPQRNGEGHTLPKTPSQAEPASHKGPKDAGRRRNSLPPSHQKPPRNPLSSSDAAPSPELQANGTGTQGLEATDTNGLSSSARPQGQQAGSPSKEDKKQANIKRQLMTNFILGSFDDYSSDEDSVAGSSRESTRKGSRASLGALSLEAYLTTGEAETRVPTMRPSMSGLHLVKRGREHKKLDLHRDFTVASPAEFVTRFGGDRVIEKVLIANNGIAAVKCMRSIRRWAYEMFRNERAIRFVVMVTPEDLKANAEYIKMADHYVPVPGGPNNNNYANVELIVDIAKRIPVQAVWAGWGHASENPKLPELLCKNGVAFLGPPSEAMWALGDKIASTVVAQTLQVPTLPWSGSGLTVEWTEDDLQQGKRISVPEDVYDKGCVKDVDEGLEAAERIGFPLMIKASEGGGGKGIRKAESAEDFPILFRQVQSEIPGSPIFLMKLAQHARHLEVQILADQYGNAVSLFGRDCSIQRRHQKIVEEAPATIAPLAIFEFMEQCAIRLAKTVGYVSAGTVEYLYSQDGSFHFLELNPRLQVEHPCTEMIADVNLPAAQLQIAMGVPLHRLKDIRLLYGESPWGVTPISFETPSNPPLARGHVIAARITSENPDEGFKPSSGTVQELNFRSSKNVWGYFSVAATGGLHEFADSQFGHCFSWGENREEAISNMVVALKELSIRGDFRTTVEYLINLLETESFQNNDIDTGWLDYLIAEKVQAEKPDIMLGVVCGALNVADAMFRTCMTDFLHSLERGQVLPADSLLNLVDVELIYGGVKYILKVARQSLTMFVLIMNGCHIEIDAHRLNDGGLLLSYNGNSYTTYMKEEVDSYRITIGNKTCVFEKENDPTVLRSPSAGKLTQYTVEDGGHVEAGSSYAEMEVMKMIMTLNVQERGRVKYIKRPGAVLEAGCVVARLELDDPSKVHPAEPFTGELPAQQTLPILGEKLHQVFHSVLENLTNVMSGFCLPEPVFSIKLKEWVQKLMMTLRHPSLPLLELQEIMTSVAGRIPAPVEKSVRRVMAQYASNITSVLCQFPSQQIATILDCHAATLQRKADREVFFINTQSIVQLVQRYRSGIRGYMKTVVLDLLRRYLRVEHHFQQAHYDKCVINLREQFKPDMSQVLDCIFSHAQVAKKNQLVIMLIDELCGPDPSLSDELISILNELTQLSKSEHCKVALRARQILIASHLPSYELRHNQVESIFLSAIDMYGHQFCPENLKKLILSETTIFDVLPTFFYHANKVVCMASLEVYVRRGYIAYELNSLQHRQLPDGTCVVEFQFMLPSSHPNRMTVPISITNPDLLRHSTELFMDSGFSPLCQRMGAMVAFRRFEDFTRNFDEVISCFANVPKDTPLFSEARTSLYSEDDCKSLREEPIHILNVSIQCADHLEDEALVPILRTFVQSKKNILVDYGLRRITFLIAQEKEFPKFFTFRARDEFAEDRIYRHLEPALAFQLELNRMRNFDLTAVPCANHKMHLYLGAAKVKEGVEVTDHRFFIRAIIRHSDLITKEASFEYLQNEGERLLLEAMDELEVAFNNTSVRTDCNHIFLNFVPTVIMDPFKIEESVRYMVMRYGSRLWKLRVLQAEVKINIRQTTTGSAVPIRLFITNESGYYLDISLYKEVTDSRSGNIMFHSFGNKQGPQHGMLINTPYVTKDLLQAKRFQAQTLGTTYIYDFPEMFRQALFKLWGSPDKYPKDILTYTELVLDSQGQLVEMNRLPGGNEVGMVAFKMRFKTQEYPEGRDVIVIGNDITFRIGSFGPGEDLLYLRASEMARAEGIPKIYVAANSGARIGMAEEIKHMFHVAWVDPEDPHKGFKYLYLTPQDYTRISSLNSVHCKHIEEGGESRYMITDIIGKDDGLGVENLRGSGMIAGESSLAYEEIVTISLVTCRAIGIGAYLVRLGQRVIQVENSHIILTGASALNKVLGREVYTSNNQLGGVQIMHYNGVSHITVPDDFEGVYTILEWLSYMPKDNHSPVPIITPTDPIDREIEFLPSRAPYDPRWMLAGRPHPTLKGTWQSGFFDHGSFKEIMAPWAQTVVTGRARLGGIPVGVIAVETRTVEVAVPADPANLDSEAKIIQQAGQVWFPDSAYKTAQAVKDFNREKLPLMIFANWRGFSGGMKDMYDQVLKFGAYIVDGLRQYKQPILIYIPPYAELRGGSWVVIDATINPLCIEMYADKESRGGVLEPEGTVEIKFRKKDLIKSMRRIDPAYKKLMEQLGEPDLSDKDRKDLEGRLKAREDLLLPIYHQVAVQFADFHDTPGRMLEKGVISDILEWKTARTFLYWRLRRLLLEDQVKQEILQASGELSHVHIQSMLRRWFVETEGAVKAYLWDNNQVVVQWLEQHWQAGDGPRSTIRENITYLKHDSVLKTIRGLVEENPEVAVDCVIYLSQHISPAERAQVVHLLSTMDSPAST
Briefly: Measurement of inhibitory activity on human ACC2 (MALDI-TOF MS, acetyl CoA to malonyl CoA conversion). The format is biochemical.
Settings: not given
For orientation: IC50 means the concentration at which inhibition is half-maximal. In the case of `CCCc1ccc(Oc2ccc(/C=C/[C@H](C)NC(=O)Cc3nccs3)cn2)c(Cl)c1` [Compound I-423], the concentration for half-maximal inhibition (IC50) came out at 3 µM.
Take `CCC1(c2ccc(Oc3ccc(/C=C/[C@H](C)NC(C)=O)cn3)c(Cl)c2)COC1` [Compound I-400]: the half-maximal inhibitory concentration (IC50) stood at 3.2 µM.
The same measure, in the same setting: under `CC(=O)N[C@@H](C)/C=C/c1ccc(Oc2ccc(-c3ccc(C(F)(F)F)cn3)cc2Cl)nc1` [Compound I-421] stands 0.052 µM.
On to `CC(=O)N[C@@H](C)/C=C/n1cc(Oc2ccc(OCC3CC3)cc2Cl)cn1` [Compound I-402], for which the IC50 turned out to be 1.1 µM.
The same measure, in the same setting: under `CCCc1ccc(Oc2ccc(/C=C/[C@H](C)NC(=O)CO)cn2)c(Cl)c1` [Compound I-384] stands 0.28 µM.
Regarding `CC(=O)N[C@@H](C)/C=C/c1ccc(Oc2ccc3nc(C)sc3c2)nc1` [Compound I-425], the IC50 amounted to 0.04 µM.
On the same count and under the same terms, with `CC(=O)N[C@@H](C)/C=C/c1cc(Oc2ccc(OCC3CC3)cc2Cl)no1` [Compound I-381] the figure was 0.36 µM; with `CCCc1cc(Cl)c(Oc2ccc(/C=C/[C@H](C)NC(N)=O)cn2)c(Cl)c1` [Compound I-387], 0.56 µM.

The same test, now with this note: inhibition activity on human ACC2, Table 79; read-out: IC50.
Regarding `CC(=O)N[C@@H](C)/C=C/c1cnn(Cc2ccc(OCC3CC3)cc2F)c1` [Compound I-67], the IC50 was 1.2 µM.
Still for that read-out and setting: under `CC(=O)N[C@@H](C)/C=C/c1ccc(Oc2ccc(OCC3CC3)nc2)nc1` [Compound I-33] stands 0.012 µM.
Still for that read-out and setting: with `CC(=O)N[C@@H](C)/C=C/c1ccc(Oc2ccc(OCC3CC3)cc2Cl)cc1` [Compound I-57] the figure was 0.0022 µM.
The same measure, in the same setting: under `COc1cccc(Oc2ccc(/C=C/[C@H](C)NC(C)=O)cn2)c1Cl` [Compound I-29] stands 0.094 µM; under `COCCOCC(=O)N[C@@H](C)/C=C/c1cnc(Oc2ccc(OCC3CC3)cc2Cl)s1` [Compound I-104], 0.45 µM.
Take `CCOc1ccc(Oc2ccc(/C=C/[C@H](C)NC(C)=O)cn2)cc1` [Compound I-16]: the IC50 amounted to 0.031 µM.

Staying with this test, now noted: inhibition activity on human ACC2, Table 80; read-out: IC50.
For `CCOC(=O)c1cc(C(=O)N[C@@H](C)/C=C/c2cnc(Oc3ccc(OCC4CC4)cc3Cl)s2)ccn1` [Compound I-136], the IC50 stood at 0.012 µM.
Still for that read-out and setting: with `C[C@@H](/C=C/c1cnc(Oc2ccc(OCC3CC3)cc2Cl)s1)NC(=O)c1ccnc(C(=O)NCCN2CCCC2)c1` [Compound I-215] the figure was 0.024 µM; with `C[C@@H](/C=C/c1cnc(Oc2ccc(OCC3CC3)cc2Cl)s1)NC(=O)NCC(F)F` [Compound I-192], 0.081 µM.
On the same count and under the same terms, with `CCOCn1ccnc1-c1cc(C(=O)N[C@@H](C)/C=C/c2cnc(Oc3ccc(OCC4CC4)cc3Cl)s2)ccn1` [Compound I-158] the figure was 1.4 µM.
On the same count and under the same terms, under `C[C@@H](/C=C/c1cnc(Oc2ccc(OCC3CC3)cc2Cl)s1)NC(=O)c1ccnc(NCCO)c1` [Compound I-243] stands 0.41 µM; under `COC(=O)N[C@@H](C)/C=C/c1cnn(Cc2ccc(OCC3CC3)cc2Cl)c1` [Compound I-183], 0.66 µM.
In the case of `CCOC(=O)c1cc(C(=O)N[C@@H](C)/C=C/c2cnn(Cc3ccc(OCC4CC4)cc3Cl)c2)ccn1` [Compound I-173], the concentration for half-maximal inhibition (IC50) was 0.059 µM.
On the same count and under the same terms, with `CCOc1ccc(Oc2ccc(/C=C/[C@H](C)NC(N)=O)cn2)c(Cl)c1` [Compound I-184] the figure was 0.11 µM; with `CCOc1ccc(Oc2ccc(/C=C/[C@H](C)Nc3cc(C)on3)cn2)c(Cl)c1` [Compound I-203], 0.069 µM; with `C[C@@H](/C=C/c1cnc(Oc2ccc(OCC3CC3)cc2Cl)s1)NC(=O)c1ccnc(C(=O)NCCO)c1` [Compound I-206], 0.0063 µM.
The same measure, in the same setting: with `CC(C)S(=O)(=O)NCCCC(=O)N[C@@H](C)/C=C/c1cnc(Oc2ccc(OCC3CC3)cc2Cl)s1` [Compound I-119] the figure was 0.061 µM.

The test is the same for the next values; noted with them: inhibition activity on human ACC2, Table 82; read-out: IC50.
On to `CCCc1ccc(Oc2ccc(/C=C/[C@H](C)NC(=O)COC(C)=O)cn2)c(Cl)c1` [Compound I-375], for which the IC50 came out at 0.057 µM.
For the molecule `CC(=O)N[C@@H](C)/C=C/c1ccc(Oc2ccc(C3=CCC4(CC3)CC4)c(Cl)c2)nc1` [Compound I-378], the IC50 came to 0.016 µM.
`CC(=O)N[C@@H](C)/C=C/c1ccc(Oc2ccc(C(C)F)cc2Cl)nc1` (stereo partly drawn) [Compound I-332]: the IC50 is 0.092 µM.
The same measure, in the same setting: under `CC(=O)N[C@@H](C)/C=C/c1ccc(Oc2ccc(C(=O)NCC3CC3)cc2Cl)nc1` [Compound I-357] stands 0.44 µM.
With `CC(=O)N[C@@H](C)/C=C/c1ccc(Oc2ccc(C(C)=O)cc2Cl)nc1` [Compound I-327], the IC50 was 0.34 µM.
On the same count and under the same terms, with `CC(=O)N[C@@H](C)/C=C/c1ccc(Oc2ccc(-c3ccc(C)cc3)cc2Cl)nc1` [Compound I-344] the figure was 0.051 µM.
For `CC(=O)N[C@@H](C)/C=C/c1ccc(Oc2ccc(C3=CCCC3)cc2Cl)nc1` [Compound I-351], the 50% inhibitory concentration (IC50) came out at 0.042 µM.
Same read-out and setting: with `CC(=O)N[C@@H](C)/C=C/c1ccc(Oc2ccc(C3=CCCCC3)cc2Cl)nc1` [Compound I-350] the figure was 0.018 µM; with `CCC(F)c1ccc(Oc2ccc(/C=C/[C@H](C)NC(C)=O)cn2)c(Cl)c1` (stereo partly drawn) [Compound I-373], 0.025 µM; with `CCOc1ccc(Oc2ncc(/C=C/[C@H](C)NC(C)=O)cc2Cl)c(Cl)c1` [Compound I-334], 0.047 µM.

The test is the same for the next values; noted with them: inhibition activity on human ACC2, Table 84; read-out: IC50.
For the molecule `CCC(=O)c1ccc(Oc2ncc(/C=C/[C@H](C)NC(C)=O)s2)c(Cl)c1` [Compound I-431], the IC50 turned out to be 0.085 µM.
On the same count and under the same terms, under `CC(=O)N[C@@H](C)/C=C/c1ccc(Oc2cc3sc(C(C)C)nc3cc2Cl)nc1` [Compound I-488] stands 0.011 µM; under `CC(=O)N[C@@H](C)/C=C/c1ccc(Oc2ccc3c(C)nsc3c2)nc1` [Compound I-486], 0.11 µM.
With `CCOc1ccc(Oc2ncc(/C=C/[C@H](C)NC(C)=O)cc2F)c(Cl)c1` [Compound I-446], the IC50 was 0.073 µM.
Consider `CC(=O)N[C@@H](C)/C=C/c1ccc(Oc2cc3c(cc2Cl)OCC3)nc1` [Compound I-479], for which the half-maximal inhibitory concentration (IC50) was found to be 0.44 µM.
Still for that read-out and setting: under `CC(=O)N[C@@H](C)/C=C/c1ccc(Oc2ccc3nc(C(C)C)oc3c2)nc1` [Compound I-500] stands 0.0089 µM; under `CCCc1ccc(Oc2ccc(/C=C/[C@H](C)NC(C)=O)cn2)c(Cl)c1Cl` [Compound I-440], 0.02 µM.
On the same count and under the same terms, with `CC(=O)N[C@@H](C)/C=C/c1ccc(Oc2ccc3nc(C(C)(C)C)sc3c2)nc1` [Compound I-504] the figure was 0.0065 µM.
As to `CC(=O)N[C@@H](C)/C=C/c1cnc(Oc2ccc3nc(C(F)(F)F)sc3c2Cl)cn1` [Compound I-510], the half-inhibitory concentration (IC50) was found to be 0.006 µM.
On the same count and under the same terms, with `CC(=O)N[C@@H](C)/C=C/c1ccc(Oc2ccc3nc(C)sc3c2Cl)nc1` [Compound I-455] the figure was 0.03 µM; with `CC(=O)N[C@@H](C)/C=C/c1ccc(Oc2ccc3c(c2)OC(C)(C)C3)nc1` [Compound I-519], 0.059 µM; with `CC(=O)N[C@@H](C)/C=C/c1ccc(Oc2ccc3sc(C)nc3c2Cl)nc1` [Compound I-501], 0.031 µM.
`CCc1nc2ccc(Oc3ccc(/C=C/[C@H](C)NC(C)=O)cn3)cc2o1` [Compound I-495]: the IC50 worked out at 0.021 µM.
On the same count and under the same terms, under `CC(=O)N[C@@H](C)/C=C/c1cnc(Oc2ccc(OCC3CC3)cc2Cl)c(C)c1` [Compound I-443] stands 0.022 µM; under `CCCc1ccc(Oc2ccc(/C=C/[C@H](C)NC(C)=O)cn2)c(C(F)(F)F)c1` [Compound I-439], 0.082 µM; under `CC(=O)N[C@@H](C)/C=C/c1ccc(Oc2ccc3c(c2)OCCC3)nc1` [Compound I-449], 0.13 µM.

The test is the same for the next values; noted with them: inhibition activity on human ACC2, untitled table (Table 81); read-out: IC50.
For the molecule `CC(=O)N[C@@H](C)/C=C/c1ccc(Oc2ccc(CCC3CC3)cc2Cl)nc1` [Compound I-287], the IC50 was 0.018 µM.
The same measure, in the same setting: under `COc1ccc(Oc2ccc(/C=C(\C)C(C)NC(C)=O)cn2)c(Cl)c1` (stereo not drawn) [Compound I-270] stands 0.39 µM; under `CC(=O)N[C@@H](C)/C=C/c1cnn(Cc2c(F)cc(OCC3CC3)cc2F)c1` [Compound I-261], 3 µM.
Still for that read-out and setting: with `CC(=O)N[C@@H](C)/C=C/c1ccc(Oc2ccc(OCCOC3CCCCO3)cc2Cl)nc1` (stereo partly drawn) [Compound I-303] the figure was 0.63 µM.
Same read-out and setting: under `CC(=O)N[C@@H](C)/C=C/c1ccc(Oc2cc(OC(C)C)ccc2F)nc1` [Compound I-279] stands 0.059 µM; under `CCNC(=O)c1cc(C(=O)N[C@@H](C)/C=C/c2cnn(Cc3ccc(C(C)C)cc3)c2)ccn1` [Compound I-312], 0.57 µM.
`CC(=O)N[C@@H](C)/C=C/c1ccc(Oc2ccc(Br)c(Cl)c2)nc1` [Compound I-289]: the IC50 worked out at 0.028 µM.
As to `CC(=O)NC(C)/C(C)=C/c1ccc(Oc2ccc(O)cc2Cl)nc1` (stereo not drawn) [Compound I-283], the IC50 turned out to be 3.2 µM.
On the same count and under the same terms, with `CCOc1cc(Oc2ccc(/C=C/[C@H](C)NC(C)=O)cn2)ccc1F` [Compound I-280] the figure was 0.17 µM; with `COc1ccc(F)c(Oc2ccc(/C=C/[C@H](C)NC(C)=O)cn2)c1` [Compound I-258], 0.45 µM; with `CCOc1ccc(Oc2ccc(/C=C(\C)C(C)NC(C)=O)cn2)c(Cl)c1` (stereo not drawn) [Compound I-271], 0.079 µM.
Still for that read-out and setting: under `CC(=O)N[C@@H](C)/C=C/c1ccc(Oc2ccc(Cl)cc2Cl)nc1` [Compound I-273] stands 0.099 µM.
For the molecule `CCCc1ccc(Oc2ccc(/C=C/[C@H](C)NC(C)=O)cn2)cc1` [Compound I-306], the IC50 was 0.024 µM.
With `CCCc1ncc(Oc2ccc(/C=C/[C@H](C)NC(C)=O)cn2)cc1Cl` [Compound I-294], the IC50 came to 0.15 µM.
On to `CCC(C)(C)c1ccc(Oc2ccc(/C=C/[C@H](C)NC(C)=O)cn2)c(Cl)c1` [Compound I-253], for which the concentration for half-maximal inhibition (IC50) was found to be 0.017 µM.
Still for that read-out and setting: with `CCOc1cc(F)cc(Oc2ccc(/C=C/[C@H](C)NC(C)=O)cn2)c1` [Compound I-276] the figure was 0.15 µM; with `CCNC(=O)c1cc(C(=O)N[C@@H](C)/C=C/c2cnn(Cc3ccc(F)c(C(F)(F)F)c3)c2)ccn1` [Compound I-309], 2.8 µM; with `CCCc1ccc(Oc2ccc(/C=C/[C@H](C)NC(C)=O)cn2)cn1` [Compound I-269], 0.12 µM.

(Values after patent publication US20150246938A1, “NOVEL OLEFIN DERIVATIVE” (SHIONOGI & CO., LTD., priority 2011, published 2015).)
